In publication PMC11995724, “Antibiotic target discovery by integrated phenotypic and activity-based profiling of electrophilic fragments” (Cell chemical biology, 2025):

assay: in vitro; conditions: human, hek293t cells

Compared with Cc1cc(Cl)ccc1OC(C)C(=O)N1CCSSCC1 (stereo not shown) [10-J21, 2-(4-chloro-2-methylphenoxy)-1-(1,2,5-dithiazepan-5-yl)propan-1-one], O=C1NC(=O)c2cc(NC(=O)N3CCSSCC3)ccc21 [10-K22, N-(1,3-dioxo-2,3-dihydro-1H-isoindol-5-yl)-1,2,5-dithiazepane-5-carboxamide] is lower in viability at 48 h, 25 µM: 110% for the first, 98.8% for the second.

Compared with CC(Cl)C(=O)C=C1N(C)c2ccccc2C1(C)C (stereo not shown) [10-J22, 3-chloro-1-(1,3,3-trimethyl-2,3-dihydro-1H-indol-2-ylidene)butan-2-one], CC(=O)Nc1ccc(C(=O)C(C)Cl)cc1 (stereo not shown) [10-K06, N-[4-(2-chloropropanoyl)phenyl]acetamide] is higher in viability at 48 h, 25 µM: 5.56% for the first, 101% for the second.

Going from COc1cccc(N2C(=O)C=CC2=O)c1 [10-K03, 1-(3-methoxyphenyl)-2,5-dihydro-1H-pyrrole-2,5-dione] to COc1ccc(Cl)cc1N1C(=O)C=CC1=O [10-K10, 1-(5-chloro-2-methoxyphenyl)-2,5-dihydro-1H-pyrrole-2,5-dione], the viability at 48 h, 25 µM rises from 18.5% to 81.3%.

Compared with Cc1cc(C(=O)CCl)c(C)n1-c1ccc(OC(F)F)c(Cl)c1 [10-K04, 2-chloro-1-{1-[3-chloro-4-(difluoromethoxy)phenyl]-2,5-dimethyl-1H-pyrrol-3-yl}ethan-1-one], Cc1cc(C(=O)CCl)c(C)n1-c1ccc2c(c1)OCO2 [10-K14, 1-[1-(1,3-dioxaindan-5-yl)-2,5-dimethyl-1H-pyrrol-3-yl]-2-chloroethan-1-one] is higher in viability at 48 h, 25 µM: 0.0199% for the first, 22.4% for the second.

Compared with O=C(CCl)c1c[nH]c2ccncc12 [10-K05, 2-chloro-1-{1H-pyrrolo[3,2-c]pyridin-3-yl}ethan-1-one], Cc1cc(C(=O)CCl)c(C)s1 [10-K16, 2-chloro-1-(2,5-dimethylthiophen-3-yl)ethan-1-one] is lower in viability at 48 h, 25 µM: 1.3% for the first, 0.769% for the second.

Compared with O=C1C=CC(=O)N1CCCCO [10-K07, 1-(4-hydroxybutyl)-2,5-dihydro-1H-pyrrole-2,5-dione], O=C1C=CC(=O)N1c1ccccc1Sc1ccccc1 [10-K12, 1-[2-(phenylsulfanyl)phenyl]-2,5-dihydro-1H-pyrrole-2,5-dione] is higher in viability at 48 h, 25 µM: 39.9% for the first, 63% for the second.

Compared with CCOc1ccc(-n2c(C)cc(C(=O)CCl)c2C)cc1 [10-K08, 2-chloro-1-[1-(4-ethoxyphenyl)-2,5-dimethyl-1H-pyrrol-3-yl]ethan-1-one], COC(=O)c1c(C(=O)CCl)c(C)n(C(C)C)c1C [10-K21, methyl 4-(2-chloroacetyl)-2,5-dimethyl-1-(propan-2-yl)-1H-pyrrole-3-carboxylate] is higher in viability at 48 h, 25 µM: 0.112% for the first, 71.2% for the second.

Going from O=C(CCl)C1CC1(Cl)Cl (stereo not shown) [10-K09, 2-chloro-1-(2,2-dichlorocyclopropyl)ethan-1-one] to O=C(CCl)C1(F)CCCCC1 [10-K19, 2-chloro-1-(1-fluorocyclohexyl)ethan-1-one], the viability at 48 h, 25 µM rises from 1.74% to 97.5%.

Going from O=C(CCl)c1sccc1Cl [10-K11, 2-chloro-1-(3-chlorothiophen-2-yl)ethan-1-one] to O=C(CCl)Cc1c(Cl)cccc1Cl [10-K15, 1-chloro-3-(2,6-dichlorophenyl)propan-2-one], the viability at 48 h, 25 µM rises from 17% to 23.3%.

Compared with Cc1noc(C)c1C(=O)CCl [10-K13, 2-chloro-1-(3,5-dimethyl-1,2-oxazol-4-yl)ethan-1-one], O=CN1CCc2cc(C(=O)CCl)ccc21 [10-K20, 5-(2-chloroacetyl)-2,3-dihydro-1H-indole-1-carbaldehyde] is higher in viability at 48 h, 25 µM: 56.9% for the first, 89.7% for the second.

First: O=C(CCl)Cc1cccc(F)c1F [10-K17, 1-chloro-3-(2,3-difluorophenyl)propan-2-one]
Second: Cc1ccc2nc(-c3ccc(N4C(=O)C=CC4=O)cc3)sc2c1 [10-K18, 1-[4-(6-methyl-1,3-benzothiazol-2-yl)phenyl]-2,5-dihydro-1H-pyrrole-2,5-dione]
The viability at 48 h, 25 µM of the first is lower: 33.7% for the first, 107% for the second.
